Data published in US20150057243A1, “Compositions and Methods for the Inhibition of Methyltransferases” (Northeastern University, priority 2012, published 2015).
Each block holds one molecule with its values, some of them ahead of it.

Key:
TPMT [1] = molecular target: T1, TPMT (Homo sapiens, UniProt P51580); assay: specificity assay with AdoVin (time-dependent UV absorbance change); type: biochemical; conditions: FIG. 34
T1 construct: made in house
T1 sequence (P51580 1-245): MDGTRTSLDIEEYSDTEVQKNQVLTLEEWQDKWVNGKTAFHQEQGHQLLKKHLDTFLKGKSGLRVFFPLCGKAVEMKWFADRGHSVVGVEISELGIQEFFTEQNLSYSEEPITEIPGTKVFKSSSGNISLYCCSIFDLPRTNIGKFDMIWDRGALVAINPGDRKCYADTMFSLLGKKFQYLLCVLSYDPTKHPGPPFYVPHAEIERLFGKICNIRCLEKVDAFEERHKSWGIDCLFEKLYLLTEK
Text: In comparison, the concentration of 4-methoxybenzylthiol decreased in the presence of AdoVin, indicating a reaction with AdoVin.

TPMT [2] = molecular target: T1, TPMT; conditions: data referred to for comparison; cited from earlier work
[3] = molecular target: T2, human betaine-homocysteine S-methyltransferase (Homo sapiens, UniProt Q93088); conditions: cited from earlier work
T2 sequence (Q93088 1-406): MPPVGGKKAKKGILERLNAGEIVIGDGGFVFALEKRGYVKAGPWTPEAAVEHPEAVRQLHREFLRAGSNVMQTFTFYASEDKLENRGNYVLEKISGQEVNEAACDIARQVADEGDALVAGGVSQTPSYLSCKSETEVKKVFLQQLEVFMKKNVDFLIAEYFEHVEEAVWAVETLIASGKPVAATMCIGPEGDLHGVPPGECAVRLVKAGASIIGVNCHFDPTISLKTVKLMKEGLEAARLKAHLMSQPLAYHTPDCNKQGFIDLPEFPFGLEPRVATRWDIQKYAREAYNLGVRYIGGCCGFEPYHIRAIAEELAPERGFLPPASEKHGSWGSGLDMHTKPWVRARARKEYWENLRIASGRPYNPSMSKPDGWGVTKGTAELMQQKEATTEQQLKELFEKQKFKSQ

trypanosomes = conditions: Goldberg 1997; cited from earlier work
Leishmania promastigotes = conditions: Lawrence 1993, Avila 1993; cited from earlier work
[4] = test system: Candida albicans and various Aspergillus species; conditions: cited from earlier work
mammalian cells = conditions: cited from earlier work
[5] = molecular target: T3, histidine-tagged TPMT enzyme (Homo sapiens, UniProt P51580); assay: AdoVin-TNB binding assay, histidine-tagged TPMT isolated using nickel spin column; conditions: XIC (FIG. 30 top panel)
T3 construct: made in house
T3 sequence (P51580 1-245): T1 sequence (P51580 1-245)
Description: The histidine-tagged TPMT enzyme was isolated using nickel spin column. 610.0 m/z at 8.6 min is for the TNB-AdoVin adduct (confirmed by tandem mass analysis), 411.0 m/z at 1.6 min is for AdoVin, and 162.0 m/z at 6.2 min is for vinthionine. […] The peak around 1.58 minutes with m/z 411.0 corresponds to AdoVin, while the peak around 6.2 min with m/z 162.0 corresponds to vinthionine.
Recombinant histidine-tagged human thiopurine methyltransferase (TPMT, EC 2.1.1.67) and S-adenosylhomocysteine nucleosidase (MTAN, EC 3.2.2.9) were purified as described. See Cannon, L. M. et al. Anal. Biochem. 2002, 308, 35/-363; Lee, J. E. et al. Acta Crystallogr. D. Biol. Crystallogr. 2001, 57, 150-152. The recombinant E. coli homocysteine S-methyltransferase (HMT, EC 2.1.1.10) was a gift from Steven G Clark (UCLA Department of Chemistry and Biochemistry, Los Angeles, Calif.), and purified as described. See Vinci, C. R.; Clarke, S. G. J. Biol. Chem. 2010, 285(27), 20526-20531; Vinci, C. R.; Clarke, S. G. J. Biol. Chem. 2007, 282(12), 8604-8612.

cells = conditions: cited from earlier work

Compound: O=[N+]([O-])c1ccc(O)cc1 [4-nitrophenol]
- time-dependent UV absorbance / concentration change in the presence of AdoVin (TPMT [1]): No change was observed
- reaction with AdoMet (the natural substrate for TPMT) (TPMT [2]): does not react

Compound: C=CSCCC(N)C(=O)O (racemic) [DL-S-Vinylhomocysteine]
- inhibition of human betaine-homocysteine S-methyltransferase [3]: not to be an inhibitor

Compound: C[S+](CC[C@H](N)C(=O)[O-])C[C@H]1O[C@@H](n2cnc3c(N)ncnc32)[C@H](O)[C@@H]1O (stereo partly drawn) [AdoMet, S-Adenosyl-methionine]
- active transport into trypanosomes (trypanosomes): actively transported
- active transport into Leishmania promastigotes (Leishmania promastigotes): actively transported
- active transport into Candida albicans and various Aspergillus species [4]: actively transported
- active transport into mammalian cells (mammalian cells): not actively transported

- presence in the enzyme complex [5]: absence
Compound: C=CSCC[C@H](N)C(=O)O [vinthionine, S-Demethyl-5-vinyl-L-methionine]
- cell permeability (cells): cell permeable

- time-dependent UV absorbance / concentration change in the presence of AdoVin (TPMT [1]): decreased
Compound: COc1ccc(CS)cc1 [4-methoxybenzylthiol]
- reaction with AdoMet (the natural substrate for TPMT) (TPMT [2]): reacts

Compound: C=CSCC[C@H](N)C(=O)O [L-S-Vinylhomocysteine]
- active transport into cells (cells): actively transported into cells
